Source: US5439902A, “14α, 16α-ethanoand 14α, 16α-etheno-estratrienes” (Schering Aktiengesellschaft, priority 1991, dated 1995)

Tests used:
vaginal epithelium = test: Allen-Doisy test (vaginal smears, threshold at which 50% of the animals reach stage 3); type: in vivo, ovariectomized rats; conditions: for Allen-Doisy Test p.o. [ED50] / Allen-Doisy Test s.c. [ED50]: ovariectomized rats, one-time administration d1, smears d3-d5
Procedure: In the Allen-Doisy test, an evaluation of vaginal smears in ovariectomized rats is performed on days 3-5 (d3-d5) after the one-time administration on day 1 (d1) of the test substance. The following cycle stages are distinguished:
1=diestrus (leukocytes and nucleated epithelial cells),
2=proestrus (nucleated epithelial cells),
3=estrus (denucleated horny plaques),
4=metestrus (denucleated horny plaques, leukocytes, epithelial cells).
After oral or subcutaneous administration, estrogenically active substances result in the proliferation of the vaginal epithelium and the hornification of superficial cell layers. As a threshold value, that amount of an estrogen is indicated in which 50% of the animals reach stage 3. Further, estrogens cause an increase of the uterus weight.

Estrogen-receptor = Estrogen-receptor test (KF); type: binding; conditions: estradiol = 1.0

Compound	Allen-Doisy Test p.o. [ED50] (vaginal epithelium)	Allen-Doisy Test s.c. [ED50] (vaginal epithelium; s.c.)	Estrogen-receptor test (KF) (Estrogen-receptor)	threshold value (50% of the animals reach stage 3) (vaginal epithelium; s.c., rat, FIG. 1, threshold already exceeded after only 0.3 μg) [µg]
C[C@]12CC[C@@H]3c4ccc(O)cc4CC[C@H]3[C@@]13CC[C@H](C3)[C@@H]2O [14α,16α-ethano-estra-1,3,5(10)-triene-3,17β-diol]	1.0 μg/animal/day	0.1-0.3 μg/animal/day	1.0	
C[C@]12CC[C@@H]3c4ccc(O)cc4CC[C@H]3[C@@]13CC[C@H](C3)[C@H]2O [14α,16α-ethano-estra-1,3,5(10)-triene-3,17α-diol]	3-10 μg/animal/day	0.1-0.3 μg/animal/day	0.5	< 0.3
C[C@]12CC[C@@H]3c4ccc(O)cc4CC[C@H]3[C@@]13C=C[C@H](C3)[C@H]2O [14α,16α-etheno-estra-1,3,5(10)-triene-3,17α-diol]			1.5	
C[C@]12CC[C@@H]3c4ccc(O)cc4CC[C@H]3[C@@H]1CC[C@@H]2O [Estradiol, reference compound]			1.0	
C[C@]12CC[C@@H]3c4ccc(O)cc4CC[C@H]3[C@@H]1CC[C@H]2O [17α-Estradiol, reference compound]			46.0	
